# Measurements as given in US9346832B2, “Gold complexes for use in the treatment of cancer” (University of Kwazulu-Natal, priority 2010, dated 2016).
# “Also recorded” adds a separate entry of the source.
# What was measured:
# [1] = tested on: 60 human cancer cell lines; test: NCI-60 one-dose screen; format: cell-based; settings: single dose 10 μM
# Protocol: The gold(III) complexes of this invention were screened by the National Cancer Institute (NCI, USA) against their panel of 60 different human cancer cell lines. These screens initially entail a one-dose test for the compound at a high concentration (10 μM; e.g. FIGS. 5, 6 and 7). Compounds with a good cytotoxicity profile in the one-dose screen are then subjected to a five-dose screen for the full panel of sixty human cancer cell lines (the so-called 5-dose NCI-60 screen). In the full five-dose screen, the compound concentration is varied in five doses from 10^−8 M to 10^−4 M in order to establish a dose-response function of percentage cell growth versus the concentration of the test agent. […] Similar data will shortly be available for compounds 1.1Y^1b and 1.5Y^1a as these derivatives are in 5-dose screens currently at the NCI.
# The results of one-dose NCI-60 screens are noteworthy and merit some discussion as they quickly indicate activity profiles, cell-line specificity, and general cytotoxicity for the test agents across multiple human cancer cell lines. FIGS. 5, 6, and 7 set out the one-dose screening results for MA_AuPr (FIG. 5), KA_AumacroPr (FIG. 6), and KA_AuMelmPr (FIG. 7) obtained by the NCI. These three compounds are the parent derivatives that are representative of the three new types of gold(III) Schiff base chelate relevant to this invention. All other compounds synthesized as part of this invention have been similarly analyzed.
# topoisomerase I = target: T1, topoisomerase I (Homo sapiens, UniProt P11387); test: Topoisomerase I poison/inhibitor EB gel assay; format: biochemical; settings: compared with CPT (camptothecin)
# T1 sequence (P11387 1-765): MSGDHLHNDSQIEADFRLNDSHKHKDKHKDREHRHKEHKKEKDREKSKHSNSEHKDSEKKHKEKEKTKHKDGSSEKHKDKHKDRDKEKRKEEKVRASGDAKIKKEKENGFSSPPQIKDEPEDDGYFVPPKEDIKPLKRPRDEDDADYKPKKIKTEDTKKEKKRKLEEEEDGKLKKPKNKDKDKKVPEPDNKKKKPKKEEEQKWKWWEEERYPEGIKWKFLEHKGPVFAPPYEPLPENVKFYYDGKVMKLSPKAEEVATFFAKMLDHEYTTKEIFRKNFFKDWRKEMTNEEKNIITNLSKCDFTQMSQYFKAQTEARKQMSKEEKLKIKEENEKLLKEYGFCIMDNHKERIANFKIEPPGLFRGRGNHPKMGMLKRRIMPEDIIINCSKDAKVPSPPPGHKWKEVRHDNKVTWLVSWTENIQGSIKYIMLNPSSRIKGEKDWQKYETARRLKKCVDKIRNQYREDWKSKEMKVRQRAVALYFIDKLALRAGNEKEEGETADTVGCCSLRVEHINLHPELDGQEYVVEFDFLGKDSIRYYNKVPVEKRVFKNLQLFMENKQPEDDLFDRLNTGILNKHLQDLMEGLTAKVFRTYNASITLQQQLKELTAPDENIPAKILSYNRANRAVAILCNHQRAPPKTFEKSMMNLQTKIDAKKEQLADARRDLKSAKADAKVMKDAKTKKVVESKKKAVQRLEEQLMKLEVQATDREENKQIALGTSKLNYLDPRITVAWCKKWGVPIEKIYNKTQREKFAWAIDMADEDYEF
# Protocol: The compound MA_AuPr clearly targets topoisomerase II if the statistical analysis of the NCI data for a range of drugs shown in FIG. 13 is correct. MA_AuPr was therefore assayed for its action against topoisomerase II in vitro using TopoGEN's standard protocol over a wide range of test agent concentrations (0.005 to 500 μM) in order to obtain direct experimental proof for the apparent cellular target of the compound to ensure that a fundamental understanding of the mechanism of action of this new class of Au(III) compounds exists. These experiments were performed by the company TopoGEN and at the University of Central Florida. The DNA cleavage experiments were performed in vitro using purified topoisomerase I and II enzymes and supercoiled plasmid DNA as the substrate. The controls that were used in the experiment were linear marker DNA as well as reactions without the gold(III) complex and high concentrations of VP16. The compound VP16 (etoposide) is a commercially available DNA intercalator chemotherapeutic agent, widely used in the treatment of lung and testicular cancers as well as lymphomas. […]
# Genotoxicity = test: Genotoxicity
# Description: First, the compound is not genotoxic (i.e. mutagenic).
# [2] = tested on: 3LL tumor (Lewis lung carcinoma); test: 3LL tumor growth in black mice
compound,measurement,setting,value
"C1=NCCCN=Cc2ccc[n]2[Au+][n]2cccc21.[Cl-] [MA_AuPr, 2,2′-{propane-1,3-diylbis[nitrilo(E)methylylidene]}bis(pyrrol-1-ido)gold(III) chloride]",one-dose screening result,[1],"leukemia, breast, and colon cancer cell lines are inherently more susceptible"
same,activity against topoisomerase I,topoisomerase I,inactivity; also recorded: not a topoisomerase I poison
same,Genotoxicity,Genotoxicity,not genotoxic; also recorded: Negative
same,in vivo performance relative to cisplatin,"[2]; 3LL tumors, 20 days",about 43%
same,reduction of 3LL tumor growth rate relative to control,"[2]; after 20 days, 20 μmol/kg twice weekly",about 33%
